pIC50: −log10 of the molar value.
What was measured:
CYP3A4 = CYP3A4 (Homo sapiens (Human), UniProt P08684); assay: In vitro CYP3A4 inhibition assay (P450-GLO Assay kit, Promega)
Text: The metabolism of retinoic acid and vitamin D in the skin is incompletely understood, but there is evidence for the involvement of CYP26A1, CYP3A4 and CYP2C8 in catalyzing the 4-hydroxylation of all-trans RA to 4-hydroxy-RA. It is believed, without being limited by theory, that CYP3A4 may be particularly important for ATRA metabolism in the skin. This is because CYP3A4 is expressed in skin, involved in RA metabolism, a CYP with one of the broadest substrate specificities of all of the known CYPs and available as a human recombinant protein in a commercial kit. Thus, a commercially available CYP3A4 assay was used as a surrogate to predict RAMBA potential in the skin.
The commercially available P450-GLO™ Assay kit (Promega Corporation, Madison Wis.) was used to screen various compounds for potential CYP activity, specifically CYP3A4A inhibition activity. CYP3A4A is thought to be among the primary CYP isoforms responsible for retinoic acid metabolism in the skin.
A commercially available P450-GLO™ Assay kit (Promega Corporation, Madison Wis.) is used to screen various compounds for CYP3A4A inhibition activity. CYP3A4A is thought to be one of the primary CYP isoforms responsible for retinoic acid metabolism in the skin.

[1] = tested on: ATRA 4-hydroxylase (CYP) activity; assay: in vitro; conditions: pig, pH 7.4
Text: (§1) Cytochrome P450 is a large and diverse group of enzymes that catalyze the oxidation of organic substances. […] Applicant evaluated the potential RAMBA activity of several azoles using pig liver microsomes, a rich source of CYP activity, comprising many different CYP 450 isoforms. […] As understanding in this area has progressed, a more specific CYP inhibition assay can be used to provide better predictivity of activity in human skin. Nevertheless, this assay may still be used as a general predictor of overall CYP activity.
(§2) All procedures were carried out under minimal light in order to prevent degradation of the retinoid samples.
(§3) Microsomal preparation: One lobe of fresh pig liver is obtained (e.g., at about the time of slaughter from a food-processing company) and immediately placed in ice cold 15 mM KH2PO4/250 mM sucrose (pH 7.4) and kept on ice during transportation. A 10 g sample of liver is minced and homogenized in 30 mL of homogenization buffer (15 mM KH2PO4/250 mM sucrose) using a Tekmar homoginizer or equivalent by pulsing 3 times with 20 second pulses. […] The remaining pig liver may be stored at −80° C. The homogenates from the 8 samples are pooled and centrifuged at 13,000×g for 20 minutes at 4° C. to remove crude debris. The supernatant is further centrifuged at 100,000×g for 70 minutes at 4° C. The microsomal pellets are re-suspended into 50 mL of 150 mM KH2PO4/1 mM DTT (pH 7.4) and 1 mL aliquots are stored at −80° C.
(§4) 100-150 μg of pig liver microsomal protein in 150 mM KH2PO4 is incubated at 37° C. in the presence of radiolabeled ATRA and 5 mM NADPH for 90 min. The final ATRA concentration is 1 μM, as a combination of [20-Methyl-^3H]ATRA and unlabeled ATRA. Initially, radiolabeled ATRA may be used to assist in validating the method. Once retention times of retinoid metabolites are identified, unlabeled ATRA is used for screening. Compounds tested as possible competitive substrates are added to the assay 10 min prior to the addition of ATRA. Ethanol, containing 0.1% butylated hydroxytoluene (BHT) as an antioxidant, is used to stop the reactions. For recovery of ATRA the pH of reactions are adjusted to 3.0 before extraction with 0.1N HCl. Retinoids are extracted from the protein aqueous phase with 4 mL hexane, 1 ml 100 μg/ml BHT in water (pH 3). An additional 4 mL of hexane (pH 3) is used for a second extraction. The organic extractions are pooled, evaporated to dryness using a speed vac, and resuspended in 62.5 μl acetonitrile containing 1 mg/ml BHT. Samples are analyzed by HPLC.HPLC separation of retinoids. […] Mobile phases used for gradient elution of retinoids are those of Duell et al., J. Clin. Invest. […] Mobile phase A is acetonitrile:0.02 M ammonium acetate:acetic acid (1:1:0.01) and mobile phase B is acetonitrile:0.2M ammonium acetate:acetic acid (19:1:0.008). At the start of the HPLC run, solvent A is run 100% followed by a linear gradient to solvent B at 3 minutes, a shallow gradient to 81% solvent B at 38 minutes, and 100% solvent B at 40 minutes. […] Effluent from the HPLC column flows directly into a flow-through scintillation spectrometer […]. Because of the sensitivity limitations of the β-RAM spectrometer, it is not used to quantitate peak areas but rather to confirm ATRA and ATRA 4-hydroxylase activity. Calculated peaks areas (using Millenium software—Waters Corp.) of ATRA and ATRA metabolites are used to quantify relative activity levels.

facial skin = assay: Method of treatment: topical application to the face, appearance of aging skin; assay type: in vivo, human; conditions: 0.55% by weight in a vehicle, entire face, one to two times a day for 8 weeks
Text: A test subject topically applies a composition comprising 0.55% 1-phenylimidazole, by weight in a vehicle, to the entire face one to two times a day for 8 weeks.

[2] = tested on: ATRA 4-hydroxylase (CYP) activity of pig liver microsomes; assay: In vitro ATRA 4-hydroxylase activity assay to determine CYP inhibition (pig liver microsomes); conditions: pig liver microsomes
Text: as §1, §2, §3, §4

[3] = human recombinant CYP3A4, P450-GLO kit
[4] = read-out: hit / no hit (CYP3A4 inhibition), human recombinant CYP3A4, P450-GLO kit

CYP3A4, sequence (P08684 whole entry): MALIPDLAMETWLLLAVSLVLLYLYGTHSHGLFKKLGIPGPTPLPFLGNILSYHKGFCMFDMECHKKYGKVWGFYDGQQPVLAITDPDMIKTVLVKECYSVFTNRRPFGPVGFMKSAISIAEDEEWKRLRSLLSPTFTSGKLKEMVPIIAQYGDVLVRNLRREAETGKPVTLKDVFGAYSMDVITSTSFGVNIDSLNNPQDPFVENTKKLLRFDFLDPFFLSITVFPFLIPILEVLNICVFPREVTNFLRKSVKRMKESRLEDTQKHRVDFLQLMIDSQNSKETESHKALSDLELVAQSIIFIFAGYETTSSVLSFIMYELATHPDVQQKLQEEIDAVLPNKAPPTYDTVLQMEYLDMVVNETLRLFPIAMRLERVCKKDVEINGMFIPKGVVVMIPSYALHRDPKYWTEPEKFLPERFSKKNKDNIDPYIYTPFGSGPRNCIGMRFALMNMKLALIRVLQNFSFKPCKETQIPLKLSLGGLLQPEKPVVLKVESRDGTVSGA

SMILES | pIC50 (CYP3A4; [4]) | pIC50 (CYP3A4; human, recombinant enzyme) | pIC50 (CYP3A4; [3]) | other results
Cn1ccnc1 [1-Methylimidazole] | – | < 5.00 | – | –
Cc1nccn1Cc1ccccc1 [1-benzyl-2-methylimidazole] | – | – | – | IC50 at 90 min [1]: 308 µM
c1ccc(Cn2ccnc2)cc1 [1-benzylimidazole] | – | – | – | pIC50 [1]: 4.11
c1ccc(-n2ccnc2)cc1 [1-phenylimidazole] | – | – | 6.00 | appearance of aging facial skin after treatment (facial skin): facial skin feels and appears less aged; pIC50 (CYP3A4): > 5.00; inhibitory activity in the CYP3A4 assay (in words) (CYP3A4): showed inhibitory activity; CYP inhibitory activity (in words) [2]: elicit CYP inhibitory activity; pIC50 [1]: 4.28
CCCCc1nc(C=O)c(Cl)[nH]1 [2-Butyl-4-chloro-5-formylimidazole] | – | < 5.00 | – | –
CCc1nc(C)c[nH]1 [2-Ethyl-4-methyl-imidazole] | < 5.00 | – | < 5.00 | –
c1ccc(-c2ncc[nH]2)cc1 [2-phenylimidazole, 2-Phenylimidazole] | < 5.00 | – | < 5.00 | inhibitory activity in the CYP3A4 assay (in words) (CYP3A4): did not; CYP inhibitory activity (in words) [2]: lacked any significant inhibitory activity; pIC50 [1]: < 3.30
c1ccc(-c2nc[nH]c2-c2ccccc2)cc1 [4,5-diphenylimidazole] | – | – | – | IC50 at 90 min [1]: 100 µM
CC(=O)c1ccc(-n2ccnc2)cc1 [4′-(Imidazol-1 yl) acetophenome] | – | – | – | pIC50 (CYP3A4): > 5.00
Nc1nc[nH]n1 [Amitrol] | – | < 5.00 | – | –
CCCCNC(=O)n1c(NC(=O)OC)nc2ccccc21 [Benomyl] | < 5.00 | – | < 5.00 | –
c1ccc2[nH]cnc2c1 [Benzimidazole] | < 5.00 | – | < 5.00 | –
CC1=N[C@H](C(=O)O)CCN1 [Ectoine] | – | < 5.00 | – | –
c1coc(-c2nc3ccccc3[nH]2)c1 [Fuberidazole] | < 5.00 | – | < 5.00 | –
N[C@@H](Cc1c[nH]cn1)C(=O)O [Histidine] | – | < 5.00 | – | –
N[C@@H](Cc1c[nH]c2ccccc12)C(=O)O [L-Tryptophan] | – | < 5.00 | – | –
Cc1cccc(C)c1N(Cn1cccn1)C(=O)CCl [Metazachlor] | < 5.00 | – | < 5.00 | –
Cc1ccc2cc3c(ccc4ccccc43)c3c2c1CC3 [Methyl- cholanthrene] | – | – | < 5.00 | hit / no hit (CYP3A4 inhibition) (CYP3A4; [3]): Near Hit
CCc1cccc(C)c1N(C(=O)CCl)C(C)COC (stereo not shown) [Metolachlor] | – | – | – | pIC50 (CYP3A4): < 5.00
CC(C)(C(=O)c1cccnc1)c1cccnc1 [Metyrapone] | – | – | – | pIC50 (CYP3A4): > 5.00
CC(=O)/C=C/C1=C(C)CCCC1(C)C [β-Ionone] | – | < 5.00 | – | –

Further lines, with some results ahead:

pIC50 (CYP3A4; [4]) | pIC50 (CYP3A4; human, recombinant enzyme) | SMILES | pIC50 (CYP3A4; [3]) | other results
< 5.00 | – | CC(=O)n1ccnc1 [1-Acetylimidazole] | < 5.00 | –
< 5.00 | – | C=Cn1ccnc1 [1-Vinylimidazole] | < 5.00 | –
< 5.00 | – | O=C(n1ccnc1)n1ccnc1 [1′-1-Carbonylimidazole] | < 5.00 | –
< 5.00 | – | Clc1ccccc1-c1nc2ccccc2[nH]1 [2-(2-Chlorophenyl) benzimidazole] | < 5.00 | –
– | < 5.00 | CCc1ncc[nH]1 [2-Ethylimidazole] | – | –
< 5.00 | – | Cc1ncc[nH]1 [2-Methylimidazole] | < 5.00 | –
– | < 5.00 | Clc1ncnc2[nH]cnc12 [6-Chloropurine] | – | –
– | < 5.00 | CC(NC(=O)[C@@H](N)CCC(=O)O)c1ncc[nH]1 (stereo partly shown) [Glutamylamidoethyl imidazole] | – | –
< 5.00 | – | N=C(N)c1ccc(OCCCCCCOc2ccc(C(=N)N)cc2)cc1 [Hexamidine diisethionate] | < 5.00 | –
– | < 5.00 | c1ccc(-c2n[nH]cc2-c2ccnc3ccccc23)nc1 [LY-364947] | – | –
– | < 5.00 | NCCCn1ccnc1 [N-(3-Aminopropyl) imidazole] | – | –
– | > 5.00 | O=C(/C=C/C=C/c1ccc2c(c1)OCO2)N1CCCCC1 [Piperine] | – | –
< 5.00 | – | Cn1c(=O)c2[nH]cnc2n(C)c1=O [Theophylline] | – | –

Source: patent US9138393B2, “Cosmetic compositions containing substituted azole and methods for improving the appearance of aging skin” (The Proctor & Gamble Company, priority 2013, dated 2015)
